Experimental findings from US6841368B1, “Enzymatic production of difructose dianhydride IV from sucrose and relevant enzymes and genes coding for them” (priority 1999, dated 2005) are described below.

Data set [1] has as its system levan fructotransferase from A. ureafaciens K2032. In words: Effect of additives on the activity of levan fructotransferase. It is filed as biochemical. The protocol:
(§1) The purified enzyme was 51,000 in molecular weight as measured by SDS-PAGE while being measured to have a molecular weight of 96,000 by gel filtration chromatography. Thus, it was identified as being a dimer in aqueous conditions. […] Also, it was of optimal activity at 55° C. […] Whereas being inhibited by Mn^2+, Fe^2+ and Hg^2+, the activity of the enzyme was enhanced by […] and Ca^2+.

The format of data set [2] is biochemical, A. ureafaciens K2032. The protocol: A. ureafaciens K2032 was inoculated in a selective broth containing levan as a major carbon source and cultured at 30° C. for 72 hours in an incubator. Investigation into the growth and levan fructotransferase activity of the bacteria provided the knowledge that the largest enzyme activity is obtained after 10 hours of the incubation. From the culture incubated for 10 hours, the enzyme was purified (FIG. 5). In this regard, the purification was achieved by successively using acetone precipitation, ion exchange chromatography (DEAE 650-M and Mono Q), and gel filtration chromatography, resulting in producing levan fructotransferase with a specific activity of 2269 U/mg protein at an amount of 1.1 mg at a yield of 29.8% (Table 8).
as §1
The newly isolated levan fructotransferase structural gene is composed of 1566 bp which corresponds to 521 aa. The gene of the present invention has a signal sequence consisting of 99 bp (corresponding to 33 aa) at its N-terminus and therefore, the putative completed protein may be about 56 kDa in molecular weight. […] This levan fructotransferase gene is longer by 15 bases (5 amino acids) than is the levan fructotransferase gene derived from A. nicotinovorans GS-9. These two genes are 81% in the homology of amino acid sequence (76% in the homology of base sequence). Consequently, the levan fructotransferase gene of A. ureafaciens K2032 was identified as being new and its base sequence was registered in the GenBank, U.S.A. (Accession No. AF181254).

Where [3] appears, read: additive concentration 1 mM, control = 100.
[4] abbreviates: additive concentration 10 mM, control = 100.

Read-outs that look alike come from different tables or passages of the source.

Take `[Cl-].[Li+]` [LiCl]: the Relative activity in data set [1] (setting [3]) was 92%.

Consider `[Cl-].[Cl-].[Zn+2]` [ZnCl2], for which the Relative activity in data set [1] (setting [3]) stood at 23%.

As to `[Cl][Ni][Cl]` [NiCl], in data set [1] (setting [3]), the Relative activity was 74%.

For the molecule `[Cl-].[Cl-].[Mg+2]` [MgCl2], in data set [1] (setting [3]), the Relative activity is given as 63%.

For the molecule `[Cl-].[Na+]` [NaCl], in data set [1], the “Effect on the activity of the enzyme (in words)” value (shortened to “Effect on the activity”) is listed as “enhanced” and the Relative activity is reported as 125, 142%.

In the case of `[Ca+2].[Cl-].[Cl-]` [CaCl2], the Relative activity is 156% in data set [1] (setting [3]) and 181% in data set [1] (setting [4]). In data set [1] (metal ions), the “Effect on the activity” value is given as “enhanced”.

Regarding `CCCCCCCCCCCCOS(=O)(=O)[O-].[Na+]` [SDS, sodium dodecylsulfate, reference compound], the Relative activity was 101% in data set [1] (setting [3]) and 32% in data set [1] (setting [4]).

Consider `[Cl][Mn][Cl]` [MnCl2], for which, in data set [1] (setting [3]), the Relative activity is recorded as 9%. For the same molecule, the “Effect on the activity” value in data set [1] (metal ions) was “inhibited”.

For `[Cl][Fe][Cl]` [FeCl2], the Relative activity in data set [1] (setting [3]) is 4%. The “Effect on the activity” value in data set [1] (metal ions) was “inhibited”.

As for `O=C(O)CN(CCN(CC(=O)O)CC(=O)O)CC(=O)O` [EDTA, reference compound], the Relative activity in data set [1] (setting [3]) was determined as 95%; in data set [1] (setting [4]) it was 94%.

As to `[Cl][Hg][Cl]` [HgCl2], the Relative activity in data set [1] (setting [3]) was determined as 0%. The “Effect on the activity” value in data set [1] (metal ions) is listed as “inhibited”.

With `Cl.N` [NH4Cl], the Relative activity in data set [1] (setting [3]) was 46%.

Regarding `[Cl-].[K+]` [KCl], the Relative activity in data set [1] (setting [3]) was found to be 89%.

B1: levan fructotransferase: enzyme purified from A. ureafaciens K2032 that produces DFA IV from levan; SEQ ID NO: 1 (protein)
chain: MTPAISRRAVLQGAGAGALALIFGGAVPPAARASAPGSLRAVYHMTPPSGWLCDPQRPVTTHGAYQLYYLHSDQNNGPGGWDHASTTDGVAFTHHGTVMPLRPDFPVWSGSAVVGTANTAGFGAGAVVALATQPTDGVRKYQEQYLYWSTDGGFTFTALPDPVIVNTDGRAATTPAEIENAEWFRDPKIHWDTARGEWVCVIGRLRYAAFYTSPNLRDWTLRRNFDYPNHALGGIECPDLFEITADDGTRHWVLAASMDAYGIGLPMTYAYWTGTWDGEQFHADDLTPQWLDWGWDWYAAVTWPSIDAPETKRLAIAWMNNWKYAARDVPTDASDGYNGQNSIVRELRLARQPGGWYTLLSTPVAALTNYVTATTTLPDRTVDGSAVLPWNGRAYEIELDIAWDTATNVGISVGRSPDGTRHTNIGKYGADLYVDRGPSDLAGYSLAPYSRAAAPIDPGARSVHLRILVDTQSVEVFVNAGHTVLSQQVHFAEGDTGISLYTDGGPAHFTGIVVREIGQAI
modifications: Arthrobacter ureafaciens K2032
Take B1: in data set [2], the “pH range in which the enzyme maintains its stability” value is 4-10.5. This molecule returned a Specific activity in data set [2] (after acetone precipitation, ion exchange and gel filtration chromatography) of 2269 U/mg protein. The molecule further registered a Remnant activity in data set [2] (after standing at 50° C. for 30 min) of at least 90%. In addition, the Isoelectric point in data set [2] (levan fructotransferase encoded by lftA) is reported as 5.15 pH.
